Assay: gradient 5% acetonitrile 3 min, to 50% in 2 min, to 85% in 15 min, held 3 min, 100 µL/min
Settings: column: Zorbax Extend-C18 2.1 x 50 mm; eluents: water / acetonitrile, 0.1% formic acid
How it was run: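 Each retention time is based on an adduct peak selected computationally and verified by manual inspection. Measurements used HPLC–quadrupole time-of-flight mass spectrometry in positive and negative ionization mode on mixtures of ~100 pure standards. Chromatography ran on a Zorbax Extend-C18 column (2.1 × 50 mm, 1.8 μm) at 100 μL/min with water and acetonitrile, each containing 0.1% formic acid, and dead and dwell volumes of 40 μL and 900 μL.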

SMILES	RP-LC retention time [s]
Cc1ccc(C)c(N2CCN(S(=O)(=O)c3cc(-c4cc(C(F)(F)F)[nH]n4)sc3C)CC2)c1	1300
O=C(c1cccs1)N1CCCC1c1ccc(F)cc1 (stereo not given)	910
CCOC(=O)N1CCN(S(=O)(=O)c2c[nH]c(=O)[nH]c2=O)CC1	582
Cc1noc(C)c1C1CCCN1C(=O)Nc1ccccc1Br (stereo not given)	836
CCc1ccc(OCC(=O)N2CCCCC2CCN2CCCCC2)cc1 (stereo not given)	703
O=C(Nc1ccc(N2CCOCC2)cc1)c1cc(C2CC2)n2nccc2n1	846
CCc1nc(-c2csc(S(=O)(=O)N3CCC(C(=O)Nc4cccc(C)n4)CC3)c2)no1	838
Cc1ccc(CNC(=O)C2CCCN(S(=O)(=O)c3c[nH]c(C(=O)N4CCCC4)c3)C2)o1 (stereo not given)	729
Cc1ccc(-n2c(-c3ccc(Cl)cc3)cn3c4c(=O)n(C)c(=O)n(C)c4nc23)cc1C	720
CN1C(=O)CCC2(CNC(=O)c3ccnn3C)CCC=C12 (stereo not given)	639
Cn1c(C2CCN(C(=O)Nc3cc(F)cc(F)c3)CC2)cc(=O)n2nccc12	695
O=C(Nc1ccc(N2CCN(C3CCCC3)C2=O)nc1)c1ccc(F)c(F)c1	916
CC(C)CN(CC(C)C)C(=O)CCCN1C(=O)c2ccccc2C1=O	947
Cc1ccc(CCNC(=O)CN2C(=O)C3CCCCN3c3ccc(S(=O)(=O)N(C)C)cc32)cc1 (stereo not given)	943
Cc1nnc(NC(=O)CSc2nnc(C3COc4ccccc4O3)o2)s1 (stereo not given)	699
Cc1nnc(N2CCCC(C(=O)NCCN3CCCC3)C2)c2nn(-c3ccc(Cl)cc3)c(C)c12 (stereo not given)	591
CC1CCCCN1CCNC(=O)CCCn1c2ccccc2c2cnn(C)c(=O)c21 (stereo not given)	632
Cc1ccc2c(c1)N(S(C)(=O)=O)CCC(C(=O)Nc1cccc(F)c1)O2 (stereo not given)	973
Cn1cc(C(=O)N2CC(c3nc(CCOCC4CCOCC4)no3)C2)cn1	663
CC1CCN(S(=O)(=O)c2ccc3c(c2)CCCC(=O)N3CC(=O)NC2CCCCC2)CC1	987

SMILES	RP-LC retention time [s]
O=C(NCc1ccc(N2CCCC2)nc1)c1ccc(Cl)s1	634
O=C([C@@H]1C[C@H](F)CN1C(=O)Nc1cccc(F)c1)N1CCCCC1	708
Cc1c(C(=O)N2CCN(C)CC2)sc2ncnc(N3CCN(c4ccccn4)CC3)c12	523
Cn1nc(N2CCCC(NS(=O)(=O)c3cccc(Cl)c3)C2)ccc1=O (stereo not given)	775
Cn1cnc2c(=O)oc3ccc(S(=O)(=O)N4CCN(c5ccccn5)CC4)cc3c21	576
Cc1noc(-c2ccnc(-n3cnc(C(=O)NC(C)C)c3)c2)n1	712
Cc1cc(F)ccc1NS(=O)(=O)c1ccc(-c2nnc(C3CCC3)o2)o1	963
Cc1cccc(C)c1NC(=O)N(C)CC1CCOCC1	692
O=C(c1ccccc1)N1CCN(C(=O)c2nnn3c2COC(c2ccc(Cl)cc2)C3)CC1 (stereo not given)	873
CCc1ccc(N2C(=O)Nc3ccccc3C2(O)C(=O)NCCN(CC)CC)cc1 (stereo not given)	575
CCCn1cc(S(=O)(=O)Nc2cccc(C)c2C)c2cccnc21	943
COC(=O)C1=CN(CC(=O)N2CCN(c3ccccc3)CC2)S(=O)(=O)N=C1C	871
O=C(c1ccoc1)N1CCCC(OCc2nc(-c3ccncc3)no2)C1 (stereo not given)	668
NC(=O)C1CCN(C(=O)Cc2csc(NC(=O)Nc3ccc(Cl)cc3)n2)CC1	684
CCCN1CCN(C(=O)C2CCCN(S(=O)(=O)c3cc(-c4noc(C)n4)cs3)C2)CC1 (stereo not given)	638
CC(C)Cc1ccc(S(=O)(=O)N2C[C@@H](F)C[C@H]2C(=O)N2CCCCC2)cc1	983
CCc1ccccc1NC(=O)NCCNC(=O)c1ccc(NC(=O)C2CC2)cc1	657
Cc1oc(-c2[nH]ncc2C(=O)N2CCOCC2)cc1S(=O)(=O)N1CCOCC1	595
CN1CCCc2cc(C(CNC(=O)C(=O)Nc3ccc4c(c3)OCO4)N3CCCCC3)ccc21 (stereo not given)	718

Results, then the compound that gave them:

RP-LC retention time [s]	SMILES
718	COc1ccc(CCN2CCC(CNS(=O)(=O)c3cc(-c4cc(C)no4)cs3)CC2)cc1
575	O=C(NCc1ccccc1)c1nc(-c2ccncc2)cs1
755	CCN1C(=O)c2cccnc2Sc2cc(CNC(=O)c3ccc(OC)cc3)ccc21
656	O=C1CN(Cc2ccccc2)C(=O)C(Cc2ccccc2)N1 (stereo not given)
687	COc1cccc(NC(=O)Cn2c(C(C)C)nc3c(c2=O)CN(Cc2ccccc2)CC3)c1
728	Cc1sc2ccn(C)c(=O)c2c1C(=O)N1CCN(c2ccccc2)CC1
954	Cn1cnc2c(C(=O)Nc3ccc(Cl)cc3)nn(-c3ccccc3)c2c1=O
631	CC(C)OCCCNC(=O)COc1ccccc1-c1nnc(-c2ccccc2)o1
951	COc1ccc(-c2csc(NC(=O)Cn3c(=O)sc4ccccc43)n2)cc1
845	CCC(C)N(CC(=O)N1CCc2sccc2C1COc1ccccc1OC)C(=O)COC (stereo not given)
938	COc1ccc(-c2csc(NC(=O)c3cccc([N+](=O)[O-])c3C(=O)O)n2)cc1
675	O=C(Cc1cccs1)Nc1c(C(=O)N2CCN(c3ccccn3)CC2)oc2ccccc12
590	O=C(Cn1c(=O)nc(-c2ccccc2)c2ccccc21)NCCc1ccccn1
1020	O=C(NCc1ccc(F)cc1)N1CCN(c2nc3cccnc3n(Cc3ccccc3)c2=O)CC1
818	C=CCn1c(C)c(CC(=O)NCCCC)c(=O)n2nc(-c3ccccc3)nc12
1250	COc1ccc(Nc2nc(N3CCN(c4ncccn4)CC3)nc3c2C(=O)CC(C)(C)C3)cc1
618	CCn1c(=O)c(NCCc2ccc(OC)c(OC)c2)nc2ccncc21
846	CCc1ccc(NC(=O)C2CCN(C(=O)c3ncn4c3COC(c3ccccc3)C4)CC2)cc1 (stereo not given)
744	COC(=O)c1ccc2nc(NC(=O)c3ccccc3S(C)(=O)=O)sc2c1
868	Cc1ccc(C(C)NC(=O)C2CC(=O)N(c3cccc(NC(=O)C(C)C)c3)C2)c(C)c1 (stereo not given)
810	CC1CCCCN1C(=O)c1ccc2c(c1)Sc1ncccc1C(=O)N2C(C)C (stereo not given)
736	CCc1cc(=O)n(CC(=O)Nc2c(C)cccc2C)c(N2CCOCC2)n1
867	CCOC(=O)c1c(NCc2ccccc2Cl)c2cccc(Cl)c2[nH]c1=O
1090	Cc1cccc(OCC(=O)Nc2nc(-c3ccccc3)cs2)c1
608	Cc1ccccc1CNC(=O)C1CCN(CCc2cn(C)c3ncccc23)CC1
878	O=C(Cn1cccc(-c2nc(-c3ccc(F)cc3)no2)c1=O)Nc1ccc(F)cc1

Source: the METLIN SMRT retention time set (Domingo-Almenara et al. 2019)
